The results in this text go back to patent US5367077A (priority 1992, dated 1994).

The term IC50 denotes the concentration needed to halve the response being measured.

Structures are written as SMILES.

The target of this experiment is GABAa receptor. Kind of experiment: GABAa receptor binding assay: displacement of [3H]-Flumazenil (RO15-1788) from rat cortical tissue. The following applies: rat cortical tissue homogenate, 0.5 nM 3H-RO15-1788, 30 min at 4° C., pH 7.4. How it is done: The pharmaceutical utility of compounds of this invention are indicated by the following assay for GABAa receptor activity.
Assays are carried out as described in Thomas and Tallman (J. Bio. Chem. 156: 9838-9842 , J. Neurosci. 3: 433-440, 1983). Rat cortical tissue is dissected and homogenized in 25 volumes (w/v) of 0.05M Tris HCl buffer (pH 7.4 at 4° C.). The tissue homogenate is centrifuged in the cold (4° ) at 20,000×g for 20'. The supernatant is decanted and the pellet is rehomogenized in the same volume of buffer and again centrifuged at 20,000×g. The supernatant is decanted and the pellet is frozen at -20° C. overnight. The pellet is then thawed and rehomogenized in 25 volume (original wt/vol) of buffer and the procedure is carried out twice. The pellet is finally resuspended in 50 volumes (w/vol of 0.05M Tris HCI buffer (pH 7.4 at […]).
Incubations contain 100 μl of tissue homogenate, 100 μl of radioligand 0.5nM (^3 H-RO15-1788 [^3 H-Flumazenil] specific activity 80 Ci/mmol), drug or blocker and buffer to a total volume of 500 μl. Incubations are carried for 30 min at 4° C. then are rapidly filtered through GFB filters to separate free and bound ligand. Filters are washed twice with fresh 0.05M Tris HCI buffer (pH 7.4 at 4° C.) and counted in a liquid scintillation counter. 1.0 μM diazepam is added to some tubes to determine nonspecific binding. Data are collected in triplicate determinations. averaged and % inhibition of total specific binding is calculated. Total Specific Binding=Total-Nonspecific. In some cases, the amounts of unlabeled drugs is varied and total displacement curves of binding are carried out. Data are converted to a form for the calculation of IC50 and Hill Coefficient (nH).
Background: Loss of bound radioactivity is the signal in a displacement assay; it reports binding, not function.
Take `COc1cccc(-c2cc3c4c([nH]c3cn2)CCC2(C4)OCCO2)c1` [Compound 18, 2'-(3-Methoxyphenyl)-5',6',7',9'-tetrahydro-spiro[(1,3)dioxolane-2,8'-5H-indolo[3,4-b]pyridine]]: the IC50 is 120 nM.

On to `Fc1ccccc1-c1cc2c3c([nH]c2cn1)CCCC3` [Compound 2], for which the IC50 turned out to be 550 nM.

`COc1cccc(-c2cc3c4c([nH]c3cn2)CCN(Cc2ccccc2)C4)c1` [Compound 24, 8-Benzyl-2-(3-methoxyphenyl)-5,6,7,9-tetrahydro-5H-pyrido[4,3-b]pyrido[4,3-d]-pyrrole]: the IC50 worked out at 240 nM.

For `Fc1ccccc1-c1cc2c3c([nH]c2cn1)CCN(Cc1ccccc1)C3` [Compound 20, 8-Benzyl-2-(2-fluorophenyl)-5,6,7,9-tetrahydro-5H-pyrido[4,3-b]pyrido[4,3-d]-pyrrole], the IC50 came out at 130 nM.
